Drawing on ChEMBL document CHEMBL1130696, “Conformationally constrained analogues of diacylglycerol (DAG). 15. The indispensable role of the sn-1 and sn-2 carbonyls in the binding of DAG-lactones to protein kinase C (PK-C)” (Bioorg Med Chem Lett, 1998), this text covers Ki for 3 compounds.

The target in the experiment is Protein kinase C alpha type (Homo sapiens, UniProt P17252). Put plainly: Displacement of [20-3H]-phorbol 12,13-dibutyrate (PDBU) from PKCalpha (C1b domain).

For `CCCCCCCCCCCCC/C=C1\CC(CO)(COCC)OC1=O` (stereo not drawn), affinity was put at a Ki of 4.98 µM.

Turning to `CCCCCCCCCCCCC/C=C1/CC(CO)(COCC)OC1=O` (stereo not drawn), the affinity corresponds to a Ki of 7.46 µM.

As for `CCCCCCCCCCCCC/C=C1/COC(CO)(COC(C)=O)C1` (stereo not drawn), the affinity corresponds to a Ki of 7.58 µM.
